Patent US8802664B2 (Bioproject, priority 2010, dated 2014)

What follows are compounds tested against T1, human H4 receptor (Homo sapiens, UniProt Q9H3N8) (assay: [3H]Histamine binding on membranes of CHO cells stably expressing human H4 receptor). Settings: not given.
T1 construct: expressed in transfected cells
T1 sequence (Q9H3N8 whole entry): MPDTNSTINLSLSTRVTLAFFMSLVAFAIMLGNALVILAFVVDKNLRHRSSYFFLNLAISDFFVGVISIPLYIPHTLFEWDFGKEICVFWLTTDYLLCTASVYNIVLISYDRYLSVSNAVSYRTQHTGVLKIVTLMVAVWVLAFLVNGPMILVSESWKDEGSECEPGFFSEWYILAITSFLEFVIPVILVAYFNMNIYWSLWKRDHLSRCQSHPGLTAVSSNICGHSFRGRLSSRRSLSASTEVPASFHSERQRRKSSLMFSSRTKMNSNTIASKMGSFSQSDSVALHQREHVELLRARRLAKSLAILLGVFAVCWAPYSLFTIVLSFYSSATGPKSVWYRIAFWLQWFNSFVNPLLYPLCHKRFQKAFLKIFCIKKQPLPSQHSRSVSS
In short: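 Nonspecific signal was taken as that remaining with 10 μM JNJ 7777120 present. Assays contained 20 μg CHO-derived hH4 membrane protein in Tris/HCl–EDTA buffer (pH 7.4) and were terminated on polyethyleneimine-soaked filters, with bound tritium quantified by scintillation.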
Work on CSc1cccc(-c2cccc(C(OC3CCN(C)CC3)c3nc4ccccc4s3)c2)c1 (centres unmarked) [Example 128, 2-[(1-methylpiperidin-4-yloxy)(3′-methylsulfanylbiphenyl-3-yl)methyl]benzothiazole] yielded a Ki or IC50 activity class of under 300 nM.
CN1CCC(OC(c2cccc(SCCCCN)c2)c2nc3cc(F)c(F)cc3[nH]2)CC1 (centres unmarked) [Example 495] showed a Ki or IC50 activity class of under 30 nM.
For Fc1ccc(OC(F)(F)F)cc1C(OCC1CNC1)c1nc2ccccc2[nH]1 (centres unmarked) [Example 515], the Ki or IC50 activity class was under 1000 nM.
CN1CCC(COC(c2cccc(Br)c2)c2nc3cc(F)ccc3[nH]2)C1 (centres unmarked) [Example 449, 2-[(3-bromophenyl)(1-methylpyrrolidin-3-ylmethoxy)methyl]-5-fluoro-1H-benzimidazole] was tested, and the Ki or IC50 activity class was under 30 nM.
For CN1CCC(OC(c2cccc(SCCO)c2)c2nc3ccccc3s2)CC1 (single isomer, unassigned) [Example 229, 2-{3-[benzothiazol-2-yl(1-methylpiperidin-4-yloxy)methyl]phenylsulfanyl}ethanol], the Ki or IC50 activity class was under 30 nM.
CN1CCC(OC(c2cccc(C(=O)N(C)Cc3ccccc3)c2)c2nc3ccccc3s2)CC1 (centres unmarked) [Example 219, 3-[benzothiazol-2-yl(1-methylpiperidin-4-yloxy)methyl]-N-benzyl-N-methylbenzamide] showed a Ki or IC50 activity class of under 1000 nM.
CN1CCC(OC(c2ccccc2)c2nc3cc(F)ccc3s2)CC1 (centres unmarked) [Example 33, 5-fluoro-2-[(1-methylpiperidin-4-yloxy)phenylmethyl]benzothiazole] was tested, and the Ki or IC50 activity class was under 300 nM.
Work on CN1CCC(OC(c2ccc(Cl)cc2)c2nc3ccccc3[nH]2)CC1 (centres unmarked) [Example 226, 2-[(4-chlorophenyl)(1-methylpiperidin-4-yloxy)methyl]-1H-benzimidazole] yielded a Ki or IC50 activity class of under 300 nM.
For CN1CCC(OC(c2cccc(I)c2)c2nc3ccccc3s2)CC1 (centres unmarked) [Example 41, 2-[(3-iodophenyl)(1-methylpiperidin-4-yloxy)methyl]benzothiazole], the Ki or IC50 activity class was under 30 nM.
CN1CCC(OC(c2cccc(OC3CCNC3)c2)c2nc3ccccc3s2)CC1 (centres unmarked) [Example 383, 2-{(1-methylpiperidin-4-yloxy)[3-(pyrrolidin-3-yloxy)phenyl]methyl}benzothiazole] gave a Ki or IC50 activity class of under 300 nM.
Cc1cccc(C(OC2CCN(C)CC2)c2nc3ccccc3s2)c1 (centres unmarked) [Example 8, 2-[(1-methylpiperidin-4-yloxy)(m-tolyl)methyl]benzothiazole] gave a Ki or IC50 activity class of under 30 nM.
In the case of CCOCCn1c(C(OC2CCN(C)CC2)c2cccc(C#CCCCCN)c2)nc2ccccc21 (centres unmarked) [Example 500], the Ki or IC50 activity class is reported as under 300 nM.
For CN1CCC(OC(c2cccc(C#CCO)c2)c2nc3ccccc3s2)CC1 (centres unmarked) [Example 227, 3-{3-[benzothiazol-2-yl(1-methylpiperidin-4-yloxy)methyl]phenyl}prop-2-yn-1-ol], the Ki or IC50 activity class was under 30 nM.
Compound CN1CCC(OC(c2cccc(SCCN)c2)c2nc3ccccc3s2)CC1 (centres unmarked) [Example 269, 2-{3-[benzothiazol-2-yl(1-methylpiperidin-4-yloxy)methyl]phenylsulfanyl}ethylamine] has a Ki or IC50 activity class of under 30 nM.
CNC1CCN(c2cccc(C(OC3CCN(C)CC3)c3nc4ccccc4s3)c2)C1 (centres unmarked) [Example 483] showed a Ki or IC50 activity class of under 300 nM.
Work on CN1CCC(OC(c2cccc(OCCCCN3CCCCC3)c2)c2nc3ccccc3[nH]2)CC1 (centres unmarked) [Example 333, 2-{(1-methylpiperidin-4-yloxy)[3-(4-piperidin-1-yl-butoxy)phenyl]methyl}-1H-benzimidazole] yielded a Ki or IC50 activity class of under 300 nM.
Cc1ccc(F)c(C(OC2CCN(C)CC2)c2nc3ccccc3[nH]2)c1 (centres unmarked) [Example 490] gave a Ki or IC50 activity class of under 300 nM.
CN1CCC(OC(c2cccc(N3CCC(O)(C(F)(F)F)C3)c2)c2nc3ccccc3s2)CC1 (centres unmarked) [Example 460, 1-{3-[benzothiazol-2-yl(1-methylpiperidin-4-yloxy)methyl]phenyl}-3-trifluoromethylpyrrolidin-3-ol] gave a Ki or IC50 activity class of under 1000 nM.
CN1CCC(OC(c2ccc3c(c2)CCO3)c2nc3ccccc3s2)CC1 (centres unmarked) [Example 32, 2-[(2,3-dihydrobenzofuran-5-yl)(1-methylpiperidin-4-yloxy)methyl]benzothiazole] gave a Ki or IC50 activity class of under 300 nM.
CN1CCC(NC(c2cccc(I)c2)c2nc3ccccc3s2)CC1 (centres unmarked) [Example 48, [benzothiazol-2-yl(3-iodophenyl)methyl](1-methylpiperidin-4-yl)amine] was tested, and the Ki or IC50 activity class was under 300 nM.
For CCSc1ccc(F)c(C(OC2CCN(C)CC2)c2nc3ccccc3[nH]2)c1F (centres unmarked) [Example 520], the Ki or IC50 activity class was under 300 nM.
In the case of CN1CCC(OC(c2nc3ccccc3[nH]2)c2ccc(F)cc2F)CC1 (centres unmarked) [Example 221, 2-[(2,4-difluorophenyl)(1-methylpiperidin-4-yloxy)methyl]-1H-benzimidazole], the Ki or IC50 activity class is reported as under 300 nM.
In the case of CN1CCC(OC(c2cccc(-c3ccc(Cl)c(Cl)c3)c2)c2nc3ccccc3s2)CC1 (centres unmarked) [Example 133, 2-[(3′,4′-dichlorobiphenyl-3-yl)(1-methylpiperidin-4-yloxy)methyl]benzothiazole], the Ki or IC50 activity class is reported as under 300 nM.
Cc1cc(F)c(C(OC2CCN(C)CC2)c2nc3ccccc3o2)c(F)c1 (centres unmarked) [Example 536] showed a Ki or IC50 activity class of under 30 nM.
Work on CN1CCC(OC(c2cccc(C=CCCCO)c2)c2nc3ccccc3s2)CC1 (centres unmarked) [Example 384, 5-{3-[benzothiazol-2-yl(1-methylpiperidin-4-yloxy)methyl]phenyl}pent-4-en-1-ol] yielded a Ki or IC50 activity class of under 300 nM.
In the case of CCCCOc1cccc(C(NC2CCN(C)CC2)c2nc3ccccc3[nH]2)c1 (centres unmarked) [Example 69, [(1H-benzimidazol-2-yl)(3-butoxyphenyl)methyl](1-methylpiperidin-4-yl)amine], the Ki or IC50 activity class is reported as under 30 nM.
CCSc1cccc(C(OC2CCN(C)CC2)c2nc3ccccc3[nH]2)c1 (centres unmarked) [Example 153, 2-[(3-ethylsulfanylphenyl)(1-methylpiperidin-4-yloxy)methyl]-1H-benzimidazole] showed a Ki or IC50 activity class of under 30 nM.
CN1CCC(OC(c2cccc(Cl)c2)c2nc3ccccc3[nH]2)CC1 (centres unmarked) [Example 225, 2-[(3-chlorophenyl)(1-methylpiperidin-4-yloxy)methyl]-1H-benzimidazole] was tested, and the Ki or IC50 activity class was under 300 nM.
In the case of CN1CCC(OC(c2ccc3ccsc3c2)c2nc3ccccc3[nH]2)CC1 (centres unmarked) [Example 556, 2-[benzo[b]thiophen-6-yl(1-methylpiperidin-4-yloxy)methyl]-1H-benzimidazole], the Ki or IC50 activity class is reported as under 30 nM.
Compound CN1CCC(OC(c2cccc(CCCCCCN)c2)c2nc3ccccc3[nH]2)CC1 (centres unmarked) [Example 344, 6-{3-[(1H-benzimidazol-2-yl)(1-methylpiperidin-4-yloxy)methyl]phenyl}hexylamine] has a Ki or IC50 activity class of under 300 nM.
In the case of CN1CCC(OC(c2cccc(SC(C)(C)C)c2)c2nc3ccccc3[nH]2)CC1 (centres unmarked) [Example 215, 2-[(3-tert-butylsulfanylphenyl)(1-methylpiperidin-4-yloxy)methyl]-1H-benzimidazole], the Ki or IC50 activity class is reported as under 300 nM.

Same assay, conditions: human H4 receptor; evaluated in the GTPγ[35S] assay or in the [3H]histamine binding assay (not stated which per compound); Ki or IC50 class
CC(C)C(=O)N(CCSc1cccc(C(OC2CCN(C)CC2)c2nc3ccccc3[nH]2)c1)C(=N)N (centres unmarked) [Example 478] gave a Ki or IC50 activity class of under 300 nM.
In the case of CN1CCC(OC(c2cccc(CCCNC(=N)N)c2)c2nc3ccccc3[nH]2)CC1 (centres unmarked) [Example 321, N-(3-{3-[(1H-benzimidazol-2-yl)(1-methylpiperidin-4-yloxy)methyl]phenyl}propyl)guanidine], the Ki or IC50 activity class is reported as under 30 nM.
“4-[benzothiazol-2-yl(3-bromo-phenyl)methoxy]-1,1-dimethylpiperidinium [Example 188]” showed a Ki or IC50 activity class of under 30 nM.

Same assay, conditions: read-out: Activity (Ki or IC50)
Work on CN1CCC(OC(c2cccc(SCC3(CCO)CC3)c2)c2nc3ccccc3[nH]2)CC1 (centres unmarked) [Example 257] yielded a Ki of under 1000 nM.
